Measured values taken from patent publication US6670360B2, “Optically active pyrrolopyridazine derivatives” (Sankyo Company, Limited, priority 1999, dated 2003).

Columns and labels:
[1] = target: T1, proton potassium-adenosine triphosphatase (H+·K+-ATPase) (Sus scrofa, UniProt P19156); test: Test on activity of proton potassium-adenosine triphosphatase (H+·K+-ATPase); format: biochemical; conditions: microsomal fraction of swine gastric mucosal layer, pH 6.85, 37° C.; read-out: 50% inhibitory concentration (IC50) against proton-potassium-adenosine triphosphatase
T1 construct: A microsomal fraction prepared in accordance with the method of Sachs, et al; from tissue; host or cells: swine gastric mucosa, microsomal fraction (density gradient ultracentrifugation)
T1 sequence (P19156 2-1034 limits assumed): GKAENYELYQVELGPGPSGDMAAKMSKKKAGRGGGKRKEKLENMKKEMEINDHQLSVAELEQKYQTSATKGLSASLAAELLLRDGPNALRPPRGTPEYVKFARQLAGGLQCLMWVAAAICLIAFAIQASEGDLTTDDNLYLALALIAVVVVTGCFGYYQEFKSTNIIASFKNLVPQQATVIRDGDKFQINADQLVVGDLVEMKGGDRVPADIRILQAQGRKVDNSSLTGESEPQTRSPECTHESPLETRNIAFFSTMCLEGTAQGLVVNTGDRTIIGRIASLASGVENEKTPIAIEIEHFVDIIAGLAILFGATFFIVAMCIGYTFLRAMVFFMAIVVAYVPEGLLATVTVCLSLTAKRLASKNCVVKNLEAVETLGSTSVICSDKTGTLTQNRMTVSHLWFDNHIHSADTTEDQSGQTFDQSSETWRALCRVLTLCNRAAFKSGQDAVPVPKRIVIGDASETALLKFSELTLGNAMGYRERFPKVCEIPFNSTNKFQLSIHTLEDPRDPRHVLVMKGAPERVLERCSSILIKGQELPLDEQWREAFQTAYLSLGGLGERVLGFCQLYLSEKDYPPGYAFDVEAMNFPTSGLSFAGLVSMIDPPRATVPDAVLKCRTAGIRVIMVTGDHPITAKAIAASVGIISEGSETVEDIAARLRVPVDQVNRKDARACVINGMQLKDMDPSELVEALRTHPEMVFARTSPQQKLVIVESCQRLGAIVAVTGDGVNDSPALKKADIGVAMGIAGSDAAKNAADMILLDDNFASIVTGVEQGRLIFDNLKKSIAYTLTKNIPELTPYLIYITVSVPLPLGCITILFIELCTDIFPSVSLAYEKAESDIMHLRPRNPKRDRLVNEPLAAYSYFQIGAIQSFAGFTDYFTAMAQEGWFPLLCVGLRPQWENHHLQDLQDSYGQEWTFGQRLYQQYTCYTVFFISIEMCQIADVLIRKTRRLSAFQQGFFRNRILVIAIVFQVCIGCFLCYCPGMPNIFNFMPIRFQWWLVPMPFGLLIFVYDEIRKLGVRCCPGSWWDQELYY
T1 sequence (P18434 whole entry partner): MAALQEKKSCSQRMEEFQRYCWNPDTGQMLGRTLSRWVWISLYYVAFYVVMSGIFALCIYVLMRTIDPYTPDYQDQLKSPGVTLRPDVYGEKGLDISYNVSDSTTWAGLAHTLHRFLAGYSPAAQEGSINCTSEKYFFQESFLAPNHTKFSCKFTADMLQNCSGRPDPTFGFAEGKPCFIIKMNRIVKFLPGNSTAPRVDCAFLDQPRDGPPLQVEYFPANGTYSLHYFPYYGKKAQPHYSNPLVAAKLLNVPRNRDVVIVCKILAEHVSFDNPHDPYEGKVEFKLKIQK
Description: Test on Activity of Proton Potassium-adenosine Triphosphatase (H^+·K^+-ATPase) A microsomal fraction prepared in accordance with the method of Sachs, et al. [J. Bio., Chem., 251, 7690 (1976)] by homogenizing a fresh gastric mucosal layer of swine and then subjecting the homogenate to density gradient ultra centrifugation was employed as a proton potassium-adenosine triphosphatase preparation. A solution (10 μl) of a test compound dissolved in dimethyl sulfoxide was added to 0.75 ml of a 70 mM tris-hydrochloric acid buffer (5 mM magnesium chloride, 20 mM potassium chloride, pH=6.85) containing 30 to 80 μg/ml, in terms of a protein concentration, of an enzyme preparation. The mixture was incubated with 200 times/min of agitation at 37° C. for 45 minutes. The enzymatic reaction was started by adding 0.25 ml of a 8 mM solution of disodium adenosine triphosphate. After this enzymatic reaction was continued for 20 minutes, 1 ml of a 10% trichloroacetic acid-activated charcoal (100 mg) solution was added to terminate the reaction. The reaction mixture was centrifuged (at 4° C. and 3000 rpm) for 15 minutes. […] The amount of inorganic phosphoric acid in a reaction mixture free from potassium chloride was also measured. By subtracting this amount from the amount of inorganic phosphoric acid in the presence of potassium chloride, proton potassium-adenosine triphosphatase activity was determined. […]

[2] = tested on: Helicobacter pylori strains 9470, 9472 and 9474; test: Antibacterial action against Helicobacter pylori (MIC, agar dilution); format: cell-based; conditions: 72 h, cultured at 37° C. for 3 days, microaerophilic conditions, read-out: MIC (Minimum Inhibitory Concentration) against Helicobacter pylori
Description: Antibacterial Action Against Helicobacter pylori The antibacterial activity of the invention compound was evaluated by using Helicobacter pylori strains 9470, 9472 and 9474 and determining MIC (Minimum Inhibitory Concentration) of the invention compound against Helicobacter pylori. Helicobacter pylori was cultured by plating for 4 days. A medium was prepared by dissolving Brain Heart Infusion Agar (product of Difco Laboratories) in a prescribed amount of distilled water, sterilizing in an autoclave, adding equine blood (product of Nippon Seibutsu Zairyo) to give its concentration of 7% and then solidifying the mixture. Under microaerophilic conditions, Helicobacter pylori which had been cultured at 37° C. for 4 days was suspended in physiological saline to give its viable count of about 10^8 CFU/ml. The suspension was then diluted to 100 times and a portion (about 10 μl) of the diluted suspension was inoculated in a medium for measuring MIC. The medium employed for measuring MIC has the same composition as the preculture medium. A compound of this invention was dissolved in dimethyl sulfoxide (DMSO) and two-fold serial dilutions were made with sterilized water. After mixing the solution and the medium in a ratio of 1:99, a solidified product in the Petri dish was employed as an MIC measuring medium. […]

[3] = tested on: gastric acid secretion; test: Gastric acid secretion inhibition activity in pylorus-ligated rats; format: in vivo; conditions: for 50% inhibitory dose (ID50, mg/kg) against gastric acid secretion: pylorus-ligated rats, oral administration, four hours after administration
Source text: Gastric Acid Secretion Inhibition Activity After groups of rats, each group consisting of 3 to 5 rats, were fasted overnight, they were subjected to midline abdominal incision and their pylorus was ligated under anesthesia with ether. The stomach and duodenum were returned to their original positions in the body, followed by closing at the abdominal incision part. A predetermined amount of a test compound was suspended in an aqueous solution containing 0.5% of sodium carboxymethylcellulose and 0.4% of Tween 80 (Polysorbate 80). The resulting suspension was orally administered to the rats. As a control, an aqueous suspension (suspending solvent) containing 0.5% of sodium carboxymethylcellulose and 0.4% of Tween 80 (Polysorbate 80) was orally administered to other rats. Four hours after administration of the test compound or suspending solvent, the rats were sacrificed by inhalation of CO2 gas. They were subjected to abdominal incision to remove their stomach. The content of the stomach was collected in a glass-made graduated centrifuge tube. After centrifugation, the amount (ml) of the supernatant and the amount (ml) of the precipitate were measured. The precipitate of the amount exceeding 0.5 ml was regarded as coprophage and removed from the data. The supernatant (100 μl) was poured into a test tube. Distilled water (4 ml) was added to the solution, and the solution was titrated to pH 7.0 with 0.01 N sodium hydroxide. A standard acid concentration solution obtained by adding 4 ml of distilled water to 100 μl of 0.1 N hydrochloric acid was titrated in a similar manner. […]

| Structure (SMILES) | IC50 [1] [nM] | MIC [2] [µg/mL] | effects on gastric acid secretion relative to its racemate (times stronger) ([3]; from ID50 values of Table 2, versus racemate (Compound A)) | 50% inhibitory dose (ID50, mg/kg) against gastric acid secretion [3] [mg/kg] |
| --- | --- | --- | --- | --- |
| Cc1c(C)n(C[C@H]2C[C@@H]2C)c2c(OCc3ccc(F)cc3)nncc12 [Example 1, 7-(4-Fluorobenzyloxy)-2,3-dimethyl-1-[(1S,2S)-2-methylcyclopropylmethyl]pyrrolo[2,3-d]pyridazine] | ≤ 295 | ≤ 12.5 | about 3 times | 0.52 |
| Cc1c(C)n(CC2CC2C)c2c(OCc3ccc(F)cc3)nncc12 (racemic) [Compound A, 7-(4-Fluorobenzyloxy)-1-[(E)-2-methylcyclopropylmethyl]-2,3-dimethylpyrrolo[2,3-d]pyridazine (racemate), reference compound] | – | – | – | 1.64 |
